The source of these data is the NIST ThermoML archive (doi:10.1016/j.fluid.2014.12.037).

For data set [1] the following is noted: Crystal; DTA.
Data set [2] in a line: Molar enthalpy of transition or fusion. The settings on record: Crystal; DSC.

The structures appear in SMILES notation. ± gives the expanded uncertainty stated by the source.

As for `N=C(N)N.O=[N+]([O-])O` [guanidine nitrate], the Normal melting temperature in data set [1] was 214.02 ± 2 °C. Moreover, the “Molar enthalpy of transition or fusion” value in data set [2] was 6.04 ± 0.146 kcal/mol.
